What all share (format): cell-based
One assay has as its system S. aureus FDA-209-p. In words: antimicrobial activity in vitro, MIC by agar plate dilution method, S. aureus FDA-209-p. Conditions: Staphylococcus aureus, FDA209, inoculum 1×10^6 cells/ml, read-out: minimal inhibitory concentration (MIC). As for the experimental part:
(§1) In order to investigate the in vitro activity of the under-mentioned compounds against various bacteria, the minimal inhibitory concentration (MIC) values were determined by the agar plate dilution method [see Chemotherapy, 22, 1126-1128 (1974)].
(§2) Each test inoculum was adjusted to 1×10^6 cells/ml (O.D., 600 mμ: 0.07-0.16).

Another assay concerns E. coli NIHJ. Briefly: antimicrobial activity in vitro, MIC by agar plate dilution method, E. coli NIHJ. To be noted: Escherichia coli, inoculum 1×10^6 cells/ml, read-out: minimal inhibitory concentration (MIC). The procedure:
as §1, §2

The test system of another assay is E. coli No. 29. In words: antimicrobial activity in vitro, MIC by agar plate dilution method, E. coli No. 29. To be noted: Escherichia coli, inoculum 1×10^6 cells/ml, read-out: minimal inhibitory concentration (MIC). The procedure: as §1, §2
The next assay has as its system K. pneumoniae NCTC-9632. In words: antimicrobial activity in vitro, MIC by agar plate dilution method, K. pneumoniae NCTC-9632. To be noted: Klebsiella pneumoniae, NCTC9632, inoculum 1×10^6 cells/ml, read-out: minimal inhibitory concentration (MIC). The procedure: as §1, §2
The next assay has as its system P. mirabilis 1287. Briefly: antimicrobial activity in vitro, MIC by agar plate dilution method, P. mirabilis 1287. To be noted: Proteus mirabilis, inoculum 1×10^6 cells/ml, read-out: minimal inhibitory concentration (MIC). As for the experimental part: as §1, §2
Another assay relates to M. morganii ATCC-25830. Briefly: antimicrobial activity in vitro, MIC by agar plate dilution method, M. morganii ATCC-25830. Conditions: Morganella morganii, ATCC25830, inoculum 1×10^6 cells/ml, read-out: minimal inhibitory concentration (MIC). As for the experimental part:
as §1, §2

The subject of the next assay is S. marcescens IFO-12648. Briefly: antimicrobial activity in vitro, MIC by agar plate dilution method, S. marcescens IFO-12648. To be noted: Serratia marcescens, IFO12648, inoculum 1×10^6 cells/ml, read-out: minimal inhibitory concentration (MIC). The procedure: as §1, §2
The test system of another assay is P. aeruginosa NCTC-10490. Briefly: antimicrobial activity in vitro, MIC by agar plate dilution method, P. aeruginosa NCTC-10490. Conditions: Pseudomonas aeruginosa, NCTC10490, inoculum 1×10^6 cells/ml, read-out: minimal inhibitory concentration (MIC). The procedure:
as §1, §2

Counter-ions that a name gives are not always drawn.

For `CO/N=C(\C(=O)N[C@@H]1C(=O)N2C(C(=O)[O-])=C(CSc3cc[n+](CC(=O)N(C)C)cc3)OC[C@H]12)c1csc(N)n1` [No. 6, (6S,7S)-7-[2-(2-Aminothiazol-4-yl)-2-methoxyiminoacetamido]-3-[(1-N,N-dimethylcarbamoylmethyl-4-pyridinio)thiomethyl]-Δ^3 -O-2-isocephem-4-carboxylic acid sulfate (syn-isomer)], the MIC in the assay on S. aureus FDA-209-p was 0.2 µg/mL; in the assay on E. coli NIHJ it was at most 0.025 µg/mL; in the assay on E. coli No. 29, at most 0.025 µg/mL; in the assay on K. pneumoniae NCTC-9632, at most 0.025 µg/mL; with P. mirabilis 1287, at most 0.025 µg/mL; in the assay with M. morganii ATCC-25830 it was at most 0.025 µg/mL. For the same molecule, the values for the MIC in the assay with S. marcescens IFO-12648 and in the assay with P. aeruginosa NCTC-10490 were 0.2 µg/mL and 3.13 µg/mL, respectively.
